Like-named read-outs stand apart in the source and are kept apart here.
How the values were obtained:
Test in all cases: Glasshouse assay for herbicidal activity (pre- and post-emergence), percentage phytotoxicity
Type in all cases: in vivo
[1] = test system: Alopecurus myosuroides (ALOMY); details: Alopecurus myosuroides
Summary of the method: (§1)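 Damage was rated visually as percent phytotoxicity, 100% meaning total kill, 20 days after pre-emergence application (made one day post-sowing) or 15 days after post-emergence application (made about 12 days post-sowing). Plants were grown under 16 h light, 65% humidity, warm species 24/18° C, cool 20/16° C.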

Avena fatua (AVEFA) = details: Avena fatua
Summary of the method: as §1

[2] = test system: Echinochloa crus-galli (ECHCG); details: Echinochloa crus-galli
Summary of the method: as §1

Lolium perenne (LOLPE) = details: Lolium perenne
Summary of the method: as §1

[3] = post-emergence, 360 h, Rate 250 g/ha, post-emergence, assessed visually 15 DAA, 100%=total damage, 0%=no damage, read-out: Post-emergence herbicidal activity (percentage phytotoxicity) ALOMY POST
[4] = pre-emergence, 480 h, Rate 250 g/ha, pre-emergence, assessed visually 20 DAA, 100%=total damage, 0%=no damage, read-out: Pre-emergence herbicidal activity (percentage phytotoxicity) ALOMY PRE
[5] = post-emergence, 360 h, Rate 250 g/ha, post-emergence, assessed visually 15 DAA, 100%=total damage, 0%=no damage, read-out: Post-emergence herbicidal activity (percentage phytotoxicity) AVEFA POST
[6] = pre-emergence, 480 h, Rate 250 g/ha, pre-emergence, assessed visually 20 DAA, 100%=total damage, 0%=no damage, read-out: Pre-emergence herbicidal activity (percentage phytotoxicity) AVEFA PRE
[7] = post-emergence, 360 h, Rate 250 g/ha, post-emergence, assessed visually 15 DAA, 100%=total damage, 0%=no damage, read-out: Post-emergence herbicidal activity (percentage phytotoxicity) ECHCG POST
[8] = pre-emergence, 480 h, Rate 250 g/ha, pre-emergence, assessed visually 20 DAA, 100%=total damage, 0%=no damage, read-out: Pre-emergence herbicidal activity (percentage phytotoxicity) ECHCG PRE
[9] = post-emergence, 360 h, Rate 250 g/ha, post-emergence, assessed visually 15 DAA, 100%=total damage, 0%=no damage, read-out: Post-emergence herbicidal activity (percentage phytotoxicity) LOLPE POST
[10] = pre-emergence, 480 h, Rate 250 g/ha, pre-emergence, assessed visually 20 DAA, 100%=total damage, 0%=no damage, read-out: Pre-emergence herbicidal activity (percentage phytotoxicity) LOLPE PRE
[11] = post-emergence, 360 h, 250 g/ha, post-emergence, 15 DAA, visual assessment (100%=total damage, 0%=no damage), read-out: Post-emergence herbicidal activity (percentage phytotoxicity) ALOMY POST
[12] = pre-emergence, 480 h, 250 g/ha, pre-emergence, 20 DAA, visual assessment (100%=total damage, 0%=no damage), read-out: Pre-emergence herbicidal activity (percentage phytotoxicity) ALOMY PRE
[13] = post-emergence, 360 h, 250 g/ha, post-emergence, 15 DAA, visual assessment (100%=total damage, 0%=no damage), read-out: Post-emergence herbicidal activity (percentage phytotoxicity) AVEFA POST
[14] = pre-emergence, 480 h, 250 g/ha, pre-emergence, 20 DAA, visual assessment (100%=total damage, 0%=no damage), read-out: Pre-emergence herbicidal activity (percentage phytotoxicity) AVEFA PRE
[15] = post-emergence, 360 h, 250 g/ha, post-emergence, 15 DAA, visual assessment (100%=total damage, 0%=no damage), read-out: Post-emergence herbicidal activity (percentage phytotoxicity) ECHCG POST
[16] = pre-emergence, 480 h, 250 g/ha, pre-emergence, 20 DAA, visual assessment (100%=total damage, 0%=no damage), read-out: Pre-emergence herbicidal activity (percentage phytotoxicity) ECHCG PRE
[17] = post-emergence, 360 h, 250 g/ha, post-emergence, 15 DAA, visual assessment (100%=total damage, 0%=no damage), read-out: Post-emergence herbicidal activity (percentage phytotoxicity) LOLPE POST
[18] = pre-emergence, 480 h, 250 g/ha, pre-emergence, 20 DAA, visual assessment (100%=total damage, 0%=no damage), read-out: Pre-emergence herbicidal activity (percentage phytotoxicity) LOLPE PRE
[19] = post-emergence, 360 h, POST-emergence, rate 250 g/ha, visual score 15 DAA (100%=total damage, 0%=no damage), read-out: Post-emergence herbicidal activity (percentage phytotoxicity) ALOMY POST
[20] = pre-emergence, 480 h, PRE-emergence, rate 250 g/ha, visual score 20 DAA (100%=total damage, 0%=no damage), read-out: Pre-emergence herbicidal activity (percentage phytotoxicity) ALOMY PRE
[21] = post-emergence, 360 h, POST-emergence, rate 250 g/ha, visual score 15 DAA (100%=total damage, 0%=no damage), read-out: Post-emergence herbicidal activity (percentage phytotoxicity) AVEFA POST
[22] = pre-emergence, 480 h, PRE-emergence, rate 250 g/ha, visual score 20 DAA (100%=total damage, 0%=no damage), read-out: Pre-emergence herbicidal activity (percentage phytotoxicity) AVEFA PRE
[23] = post-emergence, 360 h, POST-emergence, rate 250 g/ha, visual score 15 DAA (100%=total damage, 0%=no damage), read-out: Post-emergence herbicidal activity (percentage phytotoxicity) ECHCG POST
[24] = pre-emergence, 480 h, PRE-emergence, rate 250 g/ha, visual score 20 DAA (100%=total damage, 0%=no damage), read-out: Pre-emergence herbicidal activity (percentage phytotoxicity) ECHCG PRE
[25] = post-emergence, 360 h, POST-emergence, rate 250 g/ha, visual score 15 DAA (100%=total damage, 0%=no damage), read-out: Post-emergence herbicidal activity (percentage phytotoxicity) LOLPE POST
[26] = pre-emergence, 480 h, PRE-emergence, rate 250 g/ha, visual score 20 DAA (100%=total damage, 0%=no damage), read-out: Pre-emergence herbicidal activity (percentage phytotoxicity) LOLPE PRE

SMILES | pest or weed control at 250 g/ha [1, 11] | pest or weed control at 250 g/ha [1, 12] | pest or weed control at 250 g/ha (Avena fatua (AVEFA); [13]) | pest or weed control at 250 g/ha (Avena fatua (AVEFA); [14]) | pest or weed control at 250 g/ha [2, 15] | pest or weed control at 250 g/ha [2, 16] | pest or weed control at 250 g/ha (Lolium perenne (LOLPE); [17]) | pest or weed control at 250 g/ha (Lolium perenne (LOLPE); [18]) | pest or weed control at 250 g/ha [1, 19] | pest or weed control at 250 g/ha [1, 20] | pest or weed control at 250 g/ha (Avena fatua (AVEFA); [21]) | pest or weed control at 250 g/ha (Avena fatua (AVEFA); [22]) | pest or weed control at 250 g/ha [2, 23] | pest or weed control at 250 g/ha [2, 24] | pest or weed control at 250 g/ha (Lolium perenne (LOLPE); [25]) | pest or weed control at 250 g/ha (Lolium perenne (LOLPE); [26]) | further results
Cc1cc(C)c(C2C(=O)CC(CC(=O)NCc3ccccc3F)C2=O)c(C)c1 (centres unmarked) [Compound A110] | – | – | – | – | – | – | – | – | – | – | – | – | – | – | – | – | pest or weed control at 250 g/ha [1, 3]: 60%; pest or weed control at 250 g/ha [1, 4]: 70%; pest or weed control at 250 g/ha (Avena fatua (AVEFA); [5]): 70%; pest or weed control at 250 g/ha (Avena fatua (AVEFA); [6]): 50%; pest or weed control at 250 g/ha [2, 7]: 80%; pest or weed control at 250 g/ha [2, 8]: 90%; pest or weed control at 250 g/ha (Lolium perenne (LOLPE); [9]): 80%; pest or weed control at 250 g/ha (Lolium perenne (LOLPE); [10]): 100%
COc1cccc(CNC(=O)CC2CC(=O)C(c3c(C)cc(C)cc3C)C2=O)c1 (centres unmarked) [Compound B11] | 70% | 70% | 70% | 70% | 70% | 90% | 80% | 90% | – | – | – | – | – | – | – | – | –
Cc1cc(-c2ncc(C#N)cc2F)cc(C)c1C1C(=O)CC(CC(=O)NC(C)(C)C)C1=O (centres unmarked) [Compound B85] | 70% | 70% | 50% | 10% | 100% | 20% | 80% | 70% | – | – | – | – | – | – | – | – | –
C#CC(C)(C)NC(=O)CC1CC(=O)C(c2c(C)cc(Br)cc2C)C1=O (centres unmarked) [Compound B127] | 90% | 90% | 100% | 80% | 100% | 70% | 90% | 70% | – | – | – | – | – | – | – | – | –
CCc1cc(C)cc(C)c1C1C(=O)CC(CC(=O)N(C)CC)C1=O (centres unmarked) [Compound B258] | – | – | – | – | – | – | – | – | 100% | 100% | 100% | 90% | 100% | 100% | 100% | 100% | –
Cc1cc(-n2cc(Cl)cn2)cc(C)c1C1C(=O)CC(CC(=O)NCc2cccc(Br)c2)C1=O (centres unmarked) [Compound B312] | – | – | – | – | – | – | – | – | 90% | 10% | 100% | 10% | 100% | 70% | 80% | 70% | –
C=CCOCC(C)(C)NC(=O)CC1CC(=O)C(c2c(C)cc(C#CC)cc2C)C1=O (centres unmarked) [Compound A64] | – | – | – | – | – | – | – | – | – | – | – | – | – | – | – | – | pest or weed control at 250 g/ha [1, 3]: 90%; pest or weed control at 250 g/ha [1, 4]: 70%; pest or weed control at 250 g/ha (Avena fatua (AVEFA); [5]): 90%; pest or weed control at 250 g/ha (Avena fatua (AVEFA); [6]): 70%; pest or weed control at 250 g/ha [2, 7]: 100%; pest or weed control at 250 g/ha [2, 8]: 100%; pest or weed control at 250 g/ha (Lolium perenne (LOLPE); [9]): 70%; pest or weed control at 250 g/ha (Lolium perenne (LOLPE); [10]): 80%
C/C=C/c1cc(C)c(C2C(=O)CC(CC(=O)NCc3cccc(Cl)c3)C2=O)c(C)c1 (centres unmarked) [Compound B241] | – | – | – | – | – | – | – | – | 80% | 60% | 100% | 50% | 100% | 70% | 90% | 80% | –
Cc1cc(-c2ncc(Cl)cc2F)cc(C)c1C1C(=O)CC(CC(=O)NCc2ccc(Cl)nc2)C1=O (centres unmarked) [Compound A116] | – | – | – | – | – | – | – | – | – | – | – | – | – | – | – | – | pest or weed control at 250 g/ha [1, 3]: 90%; pest or weed control at 250 g/ha [1, 4]: 80%; pest or weed control at 250 g/ha (Avena fatua (AVEFA); [5]): 100%; pest or weed control at 250 g/ha (Avena fatua (AVEFA); [6]): 90%; pest or weed control at 250 g/ha [2, 7]: 100%; pest or weed control at 250 g/ha [2, 8]: 100%; pest or weed control at 250 g/ha (Lolium perenne (LOLPE); [9]): 100%; pest or weed control at 250 g/ha (Lolium perenne (LOLPE); [10]): 80%
Cc1cc(-c2ncc(Cl)cc2F)cc(C)c1C1C(=O)CC(CC(=O)NCCF)C1=O (centres unmarked) [Compound B95] | 100% | 100% | 100% | 100% | 100% | 100% | 100% | 100% | – | – | – | – | – | – | – | – | –
CC#Cc1cc(C)c(C2C(=O)CC(CC(=O)NCc3ccccc3)C2=O)c(C)c1 (centres unmarked) [Compound B185] | – | – | – | – | – | – | – | – | 100% | 80% | 100% | 60% | 100% | 100% | 100% | 70% | –
COCCCNC(=O)CC1CC(=O)C(c2c(C)cc(-c3ncc(Cl)cc3F)cc2C)C1=O (centres unmarked) [Compound B128] | 100% | 100% | 100% | 100% | 100% | 100% | 100% | 100% | – | – | – | – | – | – | – | – | –
Cc1cc(-c2ncc(F)cc2F)cc(C)c1C1C(=O)C[C@H](CC(=O)NC(C)(C)C)C1=O (some centres unmarked) [Compound B52] | 100% | 90% | 90% | 70% | 100% | 90% | 100% | 100% | – | – | – | – | – | – | – | – | –

— US10206394B2, “Herbicidal compounds” (Syngenta Participations AG, priority 2014, dated 2019)
